From patent publication US11504349B2, “Composition for preventing or treating TNF-related diseases, containing novel derivative as active ingredient, and method for inhibiting TNF activity by using same” (ILAB, priority 2017, dated 2022) come the findings set out here.

For one assay, the system named is TNF-overexpressing mice. As to the kind of experiment: Therapeutic effect on rheumatoid arthritis, TNF-overexpressing mouse model. Format: in vivo. The procedure:
First, until the mean level of arthritis of TNF-overexpres sing mice reached 8, the mice were raised. As such, etanercept (4.5 mpk), adalimumab (1.2 mpk), the compound of Example 61 (25 mpk, 50 mpk, or 100 mpk) were orally administered to the mice with rheumatoid arthritis from Week 15 to Week 23, three times a week, and the pathology was measured and recorded from Week 7 to Week 23 (N=5 to 6/group, *P<0.01, **P<0.005, ***P<0.001).

A further assay has as its system DBA/1 mice. Put plainly: CIA mouse model, alone and in combination with methotrexate. Format: in vivo. The settings on record: Example 61 10 mpk PO once a day, MTX 5 mpk three times a week, to Day 73. From the text: A 1:1 mixture of collagen type 2 and CFA was intradermally (ID) injected into the base of the tail of DBA/1 mice. Two weeks after the primary immunization, a 1:1 mixture of bovine collagen type 2 and IFA (incomplete Freund's adjuvant) was intradermally (ID) injected into the base of the tail to prepare the rheumatoid arthritis animal model. The thus prepared mice were divided into […], i.e., a positive control group (MTX 5 mpk treated group: 10 mice), a group treated with the compound of Example 61 alone (10 mpk treated group: 9 mice), a group treated with MTX and the compound of Example 61 (each 5 mpk and 10 mpk; 9 mice), and a group treated with vehicle (a group treated with 0.05% CMC diluted in distilled water; 15 mice). […]
The severity of arthritis was determined by ascertaining the mean score of arthritis according to the following standard score in the forefoot and hindfoot twice a week from Day 0 to Day 73 after the primary immunization: 0=normal foot, 1=inflammation and swelling of one toe, 2=inflammation and swelling of more than one toe, but not all of the toes have inflammation and swelling, or weak swelling of all toes, 3=inflammation and swelling of all toes, and 4=severe inflammation and swelling or occlusion of foot.

A further assay deals with NF-kB p65. As to the kind of experiment: Western blot: TNF-induced NF-kB p65 nuclear migration in LM cells. Conditions: TNF 50 ng/ml, 1 hour, compound at about 25 μM. Format: cell-based, mouse. The procedure: First, LM cells was treated with TNF alone (50 ng/ml) or a mixture of TNF and the compound of Example 61 (0, 10, 25, 50 μM) for 1 hour, and then the cells were washed and prepared. After the cytoplasmic fraction and nuclear fraction were separated/obtained using NE-PER nuclear and cytoplasmic extraction reagents (Thermo Scientific, cat #78833), NF-kB p65 protein was detected by SDS-PAGE and Western Blot. Anti-NF-κB p65 rabbit monoclonal antibody (Cell Signaling Technology, cat #D14E12) was used as a primary antibody, and goat anti-rabbit HRP-conjugated antibody (Invitrogen, cat #656120) was used as a secondary antibody. As a Western Blot control protein (housekeeping protein), GAPDH was used in the cytoplasmic fraction, and Lamin B1 was used in the nuclear fraction. Anti-GAPDH mouse monoclonal antibody (GenScript, cat #A01622) was used as a primary antibody of GAPDH, and goat anti-mouse HRP-conjugated antibody (BETHYLlaboratories, cat #A90-116P) was used as a secondary antibody. Anti-Lamin-B1 rabbit monoclonal antibody (Cell Signaling Technology, cat #12586S) was used as a primary antibody of Lamin B1, and anti-rabbit HRP-conjugated antibody (Invitrogen, cat #656120) was used as a secondary antibody.
(Immunoblotting shows a protein as a band on a membrane.)

With `O=C(O)c1c(-c2cc(F)ccc2F)oc2cc(Cl)ccc2c1=O` [Example 61, 2-(2,5-difluorophenyl)-3-carboxy-7-chloro-(4H)-4-benzopyranone], the “therapeutic effect on rheumatoid arthritis (pathology score)” value in the assay on TNF-overexpressing mice (25, 50 and 100 mpk PO, three times a week, Week 15 to 23, vs negative control) is “remarkable therapeutic effect”. Also, the “effect in comparison with adalimumab and etanercept” value with TNF-overexpressing mice (50 and 100 mpk PO, adalimumab 1.2 mpk, etanercept 4.5 mpk) is reported as “non-inferior effect”. Also, in the assay on DBA/1 mice, the “therapeutic effect on arthritis (mean arthritis score)” value is given as “therapeutic effect on arthritis was shown”. Further, the “migration of NF-kB from the cytoplasm to the nucleus activated by TNF” value in the assay on NF-kB p65 is listed as “almost completely inhibited”.
